Tests used:
[1] = molecular target: T1, protein tyrosine phosphatase 1B (PTP1B) (Homo sapiens, UniProt P18031); experiment: PTP1B inhibitory assay (pNPP hydrolysis); assay type: biochemical; details: pNPP substrate, pH 6.0, 37 °C, 30 min
T1 sequence (P18031 1-435): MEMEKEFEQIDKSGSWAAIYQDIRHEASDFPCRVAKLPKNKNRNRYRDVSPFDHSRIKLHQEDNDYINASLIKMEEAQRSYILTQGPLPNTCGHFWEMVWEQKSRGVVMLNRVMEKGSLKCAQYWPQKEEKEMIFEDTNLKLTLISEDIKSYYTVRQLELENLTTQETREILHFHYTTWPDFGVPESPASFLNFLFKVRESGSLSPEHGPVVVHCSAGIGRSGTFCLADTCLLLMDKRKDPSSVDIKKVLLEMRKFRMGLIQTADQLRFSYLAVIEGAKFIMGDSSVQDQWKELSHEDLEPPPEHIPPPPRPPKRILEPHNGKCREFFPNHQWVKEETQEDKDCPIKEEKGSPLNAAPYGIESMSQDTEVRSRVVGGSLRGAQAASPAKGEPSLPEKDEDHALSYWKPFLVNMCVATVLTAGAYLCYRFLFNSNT
Method: Protein tyrosine phosphatase 1B (PTP1B) inhibitory activity was determined by measuring the rate of hydrolysis of a substrate, p-nitrophenyl phosphate (pNPP, Sigma, St. Louis, MO, USA) according to the published method with a slight modification. Briefly, PTP1B (100 μL of 0.5 μg/mL stock solution, Enzo Life Sciences, Farmingdale, NY, USA) in 50 mM citrate buffer (pH 6.0) containing 0.1 M NaCl, 1 mM dithiothreitol (DTT), and 1 mM N,N,N′,N′-ethylenediamine tetraacetate (EDTA) were added to each well of a 96-well plastic plate (Corning Inc., Corning, NY, USA). […] The reaction was initiated by the addition of pNPP (100 μL of 4.0 mM stock solution) in the citrate buffer, incubated at 37 °C for 30 min, and terminated with the addition of 10 μL of a stop solution (10 M NaOH). The optical density of each well was measured at 405 nm using an MTP-500 microplate reader (Corona Electric Co., Ltd., Ibaraki, Japan). PTP1B inhibitory activity (%) is defined as [1 − (ABSsample − ABSblank)/(ABScontrol − ABSblank)] × 100, where ABSblank is the absorbance of wells containing only the buffer and pNPP, ABScontrol is the absorbance of p-nitrophenol liberated by the enzyme in the assay system without a test sample, and ABSsample is that with a test sample. The assays were performed in two duplicate experiments for all test samples. Oleanolic acid (Tokyo Chemical Industry, Tokyo, Japan), a known phosphatase inhibitor [15], was used as a positive control.

in vitro [2] = assay type: cell-based; details: human
Method: (§1) HCT-15 and Jurkat cells were obtained from the Center for Biomedical Research, Institute of Development, Aging, and Cancer, Tohoku University (Miyagi, Japan). The cell lines were cultured in RPMI-1640 medium. The medium was supplemented with 10 % fetal bovine serum, 100 U/mL penicillin, and 100 μg/mL streptomycin. Exponentially growing cells, cultured in a humidified chamber at 37 °C containing 5.0 % CO2, were used for the experiments. Cytotoxic activity was evaluated using the colorimetric MTT assay. HCT-15 (1.0 × 10^4 cells in 100 μL) or Jurkat cells (2.0 × 10^4 cells in 100 μL) were added to each well of a 96-well plastic plate. A sample (1.0 μL in MeOH) was added to each well to make the final concentrations from 0 to 39–47 μM, and the cells were incubated for 48 h at 37 °C. MTT (10 μL of 5.5 mg/mL stock solution) and a cell lysate solution (90 μL, 40 % N,N-dimethylformamide, 20 % sodium dodecyl sulfate, 2.0 % CH3COOH and 0.030 % HCl) were added to each well, and the plate was shaken thoroughly by agitation at room temperature for overnight. The optical density of each well was measured at 570 nm using an MTP-500 microplate reader.

in vitro [3] = assay type: cell-based; details: human; remark: listed apart in the source
Method: as §1

in vitro [4] = assay type: cell-based; details: human; remark: listed apart in the source
Method: Cytotoxic activity against Huh-7 cells was assessed by the MTT assay, a modification of our previously described method. Following the treatment of cells with test samples, 10 μL of MTT (5.0 mg/mL saline) was added to each well, the samples were incubated for 90 min at 37 °C and centrifuged (300g for 5 min), and the supernatant was aspirated off. The cells were lysed and solubilized by the addition of 100 μL of 0.040 N HCl in 2-propanol. The absorbance of each well was determined at 590 nm using an Inter-med model NJ-2300 Microplate Reader (Cosmo Bio Co., Ltd., Tokyo, Japan). Survival (%) was calculated relative to the control.

Row | Structure (SMILES) | IC50 [1] | IC50 at 48 h (in vitro [2]) | IC50 at 48 h (in vitro [3]) | IC50 (in vitro [4])
1 | COc1c(Br)cc(Br)cc1Oc1c(Br)cc(Br)cc1OC(C)=O [Compound 3, 3,5-dibromo-2-(3′,5′-dibromo-2′-methoxyphenoxy)phenyl ethanoate] | 620 nM |  |  | 
2 | COc1cc(Br)cc(Br)c1Oc1cc(Br)cc(Br)c1OC [Compound 2, 3,5-dibromo-2-(3′,5′-dibromo-2′-methoxyphenoxy)-1-methoxybenzene] | 1700 nM | > 46000 nM | > 46000 nM | 48000 nM
3 | COc1c(Br)cc(Br)cc1Oc1c(O)cc(Br)cc1Br [Compound 1, 2-(3′,5′-dibromo-2′-methoxyphenoxy)-3,5-dibromophenol] | 850 nM |  |  | 32000 nM
4 | COc1c(Br)cc(Br)cc1Oc1c(Br)cc(Br)cc1OC(=O)c1ccccc1 [Compound 6, 3,5-Dibromo-2-(3′,5′-dibromo-2′-methoxyphenoxy)phenyl benzoate] | 970 nM |  |  | 
5 | CCCC(=O)Oc1cc(Br)cc(Br)c1Oc1cc(Br)cc(Br)c1OC [Compound 4, 3,5-Dibromo-2-(3′,5′-dibromo-2′-methoxyphenoxy)phenyl butanoate] | 680 nM |  |  | 
6 | CCCCCC(=O)Oc1cc(Br)cc(Br)c1Oc1cc(Br)cc(Br)c1OC [Compound 5, 3,5-Dibromo-2-(3′,5′-dibromo-2′-methoxyphenoxy)phenyl hexanoate] | 690 nM |  |  | 

Reference: article PMC3765847, “A polybromodiphenyl ether from an Indonesian marine sponge Lamellodysideaherbacea and its chemical derivatives inhibit protein tyrosine phosphatase 1B, an important target for diabetes treatment” (Journal of Natural Medicines, 2012)
